Measurements as given in patent US9169254B2, “Spiroimidazolone derivative” (Chugai Seiyaku Kabushiki Kaisha, priority 2009, dated 2015).

Target: T1, human PTH1 receptor (Homo sapiens, UniProt Q03431)
T1 sequence (Q03431 27-593): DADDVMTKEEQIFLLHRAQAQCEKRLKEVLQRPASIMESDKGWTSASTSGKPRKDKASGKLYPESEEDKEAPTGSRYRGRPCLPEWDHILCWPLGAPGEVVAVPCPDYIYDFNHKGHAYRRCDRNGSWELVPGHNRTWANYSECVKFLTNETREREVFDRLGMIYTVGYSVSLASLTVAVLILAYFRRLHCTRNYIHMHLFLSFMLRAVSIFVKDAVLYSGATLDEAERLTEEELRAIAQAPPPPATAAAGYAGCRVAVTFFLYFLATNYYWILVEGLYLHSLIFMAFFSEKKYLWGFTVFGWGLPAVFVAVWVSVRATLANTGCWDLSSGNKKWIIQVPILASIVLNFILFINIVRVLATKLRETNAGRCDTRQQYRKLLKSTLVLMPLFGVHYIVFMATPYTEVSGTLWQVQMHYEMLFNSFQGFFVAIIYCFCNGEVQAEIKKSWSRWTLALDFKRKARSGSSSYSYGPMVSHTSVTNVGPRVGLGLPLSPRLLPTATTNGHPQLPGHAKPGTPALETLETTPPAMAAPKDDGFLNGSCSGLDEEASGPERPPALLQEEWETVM
Assay: In vitro cAMP signal activity in HKRK-B7 cells (LLC-PK1 cells overexpressing the human PTH1 receptor)
Assay type: cell-based
Conditions: HKRK-B7 cells; compound at 1×10^−3 M; cAMP produced as percentage of that produced by hPTH(1-34) at 100 nM

Structure (SMILES)	cAMP production activity (%)
Cc1cc(C(=O)N2CCC(C)(O)CC2)cc(C)c1/C=C/S(=O)(=O)N1CCC2(CC1)N=C(c1ccc(Cl)c(OCC(F)(F)C(F)F)c1)NC2=O [Compound 1229, 2-[4-chloro-3-(2,2,3,3-tetrafluoro-propoxy)-phenyl]-8-{(E)-2-[4-(4-hydroxy-4-methyl-piperidine-1-carbonyl)-2,6-dimethyl-phenyl]-ethenesulfonyl}-1,3,8-triaza-spiro[4.5]dec-1-en-4-one]	56
O=C1NC(c2cccc(OC(F)(F)F)c2)=NC12CCN(S(=O)(=O)/C=C/c1cccc3c1ccn3C[C@H](O)CO)CC2 [Compound 526, 8-{(E)-2-[1-((S)-2,3-dihydroxy-propyl)-1H-indol-4-yl]-ethenesulfonyl}-2-(3-trifluoromethoxy-phenyl)-1,3,8-triaza-spiro[4.5]dec-1-en-4-one]	83
Cc1cc(N(CCOCCO)C(N)=O)cc(C)c1CCS(=O)(=O)N1CCC2(CC1)N=C(C1CCC(CCC(F)(F)F)CC1)NC2=O (stereo not shown) [Compound 826, 1-[3,5-dimethyl-4-(2-{4-oxo-2-[4-(3,3,3-trifluoro-propyl)-cyclohexyl]-1,3,8-triaza-spiro[4.5]dec-1-ene-8-sulfonyl}-ethyl)-phenyl]-1-[2-(2-hydroxy-ethoxy)-ethyl]-urea]	90
Cc1cc(C(=O)NN)cc(C)c1/C=C/S(=O)(=O)N1CCC2(CC1)N=C(C1CCC(CCC(F)(F)F)CC1)NC2=O (stereo not shown) [Compound 996, 3,5-Dimethyl-4-((E)-2-{4-oxo-2-[4-(3,3,3-trifluoro-propyl)-cyclohexyl]-1,3,8-triaza-spiro[4.5]dec-1-ene-8-sulfonyl}-vinyl)-benzoic acid hydrazide]	85
Cc1cc(N2C(=O)CNC2=O)ccc1CCS(=O)(=O)N1CCC2(CC1)N=C([C@H]1CC[C@H](CC=C(F)F)CC1)NC2=O [Compound 946, 3-[4-(2-{2-[4-(3,3-difluoro-allyl)-cyclohexyl]-4-oxo-1,3,8-triaza-spiro[4.5]dec-1-ene-8-sulfonyl}-ethyl)-3-methyl-phenyl]-imidazolidine-2,4-dione]	102
Cc1cc(C(=O)N2CCC(C)(O)CC2)cc(C)c1CCS(=O)(=O)N1CCC2(CC1)N=C(C1CCC(C)CC1)NC2=O (stereo not shown) [Compound 1382, 8-{2-[4-(4-hydroxy-4-methyl-piperidine-1-carbonyl)-2,6-dimethyl-phenyl]-ethanesulfonyl}-2-(4-methyl-cyclohexyl)-1,3,8-triaza-spiro[4.5]dec-1-en-4-one]	93
Cc1cc(N2C(=O)NC(C)C2=O)cc(C)c1/C=C/S(=O)(=O)N1CCC2(CC1)N=C(C1CCC(C)CC1)NC2=O (stereo not shown) [Compound 582, 3-(3,5-dimethyl-4-{(E)-2-[2-(4-methyl-cyclohexyl)-4-oxo-1,3,8-triaza-spiro[4.5]dec-1-ene-8-sulfonyl]-vinyl}-phenyl)-5-methyl-imidazolidine-2,4-dione]	104
O=C1NC([C@H]2C[C@H]3CC[C@@H]2C3)=NC12CCN(S(=O)(=O)c1cccc(Cl)c1)CC2 [Compound 22, 2-(1R,2S,4S)-bicyclo[2.2.1]hept-2-yl-8-(3-chloro-benzenesulfonyl)-1,3,8-triaza-spiro[4.5]dec-1-en-4-one]	43
COc1cccc(/C=C/S(=O)(=O)N2CCC3(CC2)N=C([C@H]2CC[C@H](C)CC2)NC3=O)c1C [Compound 585, 8-[(E)-2-(3-methoxy-2-methyl-phenyl)-ethenesulfonyl]-2-(4-methyl-cyclohexyl)-1,3,8-triaza-spiro[4.5]dec-1-en-4-one]	39
Cc1cc(C(=O)N(C)C)ccc1CCS(=O)(=O)N1CCC2(CC1)N=C(Cc1ccc(Cl)cc1Cl)NC2=O [Compound 134, 4-{2-[2-(2,4-dichloro-benzyl)-4-oxo-1,3,8-triaza-spiro[4.5]dec-1-ene-8-sulfonyl]-ethyl}-3,N,N-trimethyl-benzamide]	77
Cc1cc(N2C(=O)NC(C)(C)C2=O)ccc1/C=C/S(=O)(=O)N1CCC2(CC1)N=C(C1CCC(C)CC1)NC2=O (stereo not shown) [Compound 511, 5,5-dimethyl-3-(3-methyl-4-{(E)-2-[2-(4-methyl-cyclohexyl)-4-oxo-1,3,8-triaza-spiro[4.5]dec-1-ene-8-sulfonyl]-vinyl}-phenyl)-imidazolidine-2,4-dione]	29
CC(=O)NCCNS(=O)(=O)c1ccc(CCS(=O)(=O)N2CCC3(CC2)N=C(C2CCCCC2)NC3=O)c(C)c1 [Compound 664, N-(2-{4-[2-(2-cyclohexyl-4-oxo-1,3,8-triaza-spiro[4.5]dec-1-ene-8-sulfonyl)-ethyl]-3-methyl-benzenesulfonylamino}-ethyl)-acetamide]	77
Cc1cc(C(=O)N2CCC(C)(O)CC2)cc(C)c1/C=C/S(=O)(=O)N1CCC2(CC1)N=C(c1ccc(Cl)c(OCC(F)(F)C(F)(F)F)c1)NC2=O [Compound 1230, 2-[4-chloro-3-(2,2,3,3,3-pentafluoro-propoxy)-phenyl]-8-{(E)-2-[4-(4-hydroxy-4-methyl-piperidine-1-carbonyl)-2,6-dimethyl-phenyl]-ethenesulfonyl}-1,3,8-triaza-spiro[4.5]dec-1-en-4-one]	64
Cc1cc(C(=O)N(C)C)c(F)cc1CCS(=O)(=O)N1CCC2(CC1)N=C(c1cccc(C(F)(F)F)c1)NC2=O [Compound 418, 2-Fluoro-5,N,N-trimethyl-4-{2-[4-oxo-2-(3-trifluoromethyl-phenyl)-1,3,8-triaza-spiro[4.5]dec-1-ene-8-sulfonyl]-ethyl}-benzamide]	84
Cc1cc(N(C)C(=O)OC(C)(C)C)cc(C)c1CCS(=O)(=O)N1CCC2(CC1)N=C(C(C)(F)F)NC2=O [Compound 1034, (4-{2-[2-(1,1-difluoro-ethyl)-4-oxo-1,3,8-triaza-spiro[4.5]dec-1-ene-8-sulfonyl]-ethyl}-3,5-dimethyl-phenyl)-methyl-carbamic acid tert-butyl ester]	54
Cc1cc(N(C)C(N)=O)cc(C)c1/C=C/S(=O)(=O)N1CCC2(CC1)N=C(CCCCCCCCCc1ccccc1)NC2=O [Compound 1365, 1-(3,5-Dimethyl-4-{(E)-2-[4-oxo-2-(9-phenyl-nonyl)-1,3,8-triaza-spiro[4.5]dec-1-ene-8-sulfonyl]-vinyl}-phenyl)-1-methyl-urea]	108
Cc1cc(C(=O)N2CCC(C)(O)CC2)cc(C)c1/C=C/S(=O)(=O)N1CCC2(CC1)N=C(c1ccc3c(c1)OC(F)(F)O3)NC2=O [Compound 1163, 2-(2,2-Difluoro-benzo[1,3]dioxol-5-yl)-8-{(E)-2-[4-(4-hydroxy-4-methyl-piperidine-1-carbonyl)-2,6-dimethyl-phenyl]-ethenesulfonyl}-1,3,8-triaza-spiro[4.5]dec-1-en-4-one]	101
Cc1cc(C(=O)N2CCN(S(=O)(=O)N(C)C)CC2)ccc1CCS(=O)(=O)N1CCC2(CC1)N=C(c1cccc(C(F)(F)F)c1)NC2=O [Compound 360, 4-(3-methyl-4-{2-[4-oxo-2-(3-trifluoromethyl-phenyl)-1,3,8-triaza-spiro[4.5]dec-1-ene-8-sulfonyl]-ethyl}-benzoyl)-piperazine-1-sulfonic acid dimethylamide]	62
Cc1cc(C(=O)N2C[C@@H](C)O[C@@H](C)C2)ccc1CCS(=O)(=O)N1CCC2(CC1)N=C(c1cccc(OC(F)(F)F)c1)NC2=O [Compound 666, 8-{2-[4-((2R,6S)-2,6-dimethyl-morpholine-4-carbonyl)-2-methyl-phenyl]-ethanesulfonyl}-2-(3-trifluoromethoxy-phenyl)-1,3,8-triaza-spiro[4.5]dec-1-en-4-one]	51
Cc1cc(C(=O)N2CCC(O)(CF)CC2)cc(C)c1/C=C/S(=O)(=O)N1CCC2(CC1)N=C(c1ccc(F)c(C)c1C)NC2=O [Compound 1240, 2-(4-fluoro-2,3-dimethyl-phenyl)-8-{(E)-2-[4-(4-fluoromethyl-4-hydroxy-piperidine-1-carbonyl)-2,6-dimethyl-phenyl]-ethenesulfonyl}-1,3,8-triaza-spiro[4.5]dec-1-en-4-one]	95
O=C(c1ccc2[nH]ccc2c1)N1CCCC(C2=NC3(CCN(S(=O)(=O)CCc4cccc5ccccc45)CC3)C(=O)N2)C1 (stereo not shown) [Compound 428, 2-[1-(1H-Indol-5-carbonyl)-piperidin-3-yl]-8-(2-naphthalen-1-yl-ethanesulfonyl)-1,3,8-triaza-spiro[4.5]dec-1-en-4-one]	8.8
CC(C)COC(=O)NCc1ccc(/C=C/S(=O)(=O)N2CCC3(CC2)N=C(C2CCCCC2)NC3=O)cc1 [Compound 486, {4-[(E)-2-(2-cyclohexyl-4-oxo-1,3,8-triaza-spiro[4.5]dec-1-ene-8-sulfonyl)-vinyl]-benzyl}-carbamic acid isobutyl ester]	59
